Results: BindingDB's records for doi:10.1126/science.279.5347.77 (Abbott Laboratories, 1998)

Biological target: Neuronal acetylcholine receptor subunit alpha-4 (Rattus norvegicus, UniProt P09483)
Sequence (P09483 whole entry): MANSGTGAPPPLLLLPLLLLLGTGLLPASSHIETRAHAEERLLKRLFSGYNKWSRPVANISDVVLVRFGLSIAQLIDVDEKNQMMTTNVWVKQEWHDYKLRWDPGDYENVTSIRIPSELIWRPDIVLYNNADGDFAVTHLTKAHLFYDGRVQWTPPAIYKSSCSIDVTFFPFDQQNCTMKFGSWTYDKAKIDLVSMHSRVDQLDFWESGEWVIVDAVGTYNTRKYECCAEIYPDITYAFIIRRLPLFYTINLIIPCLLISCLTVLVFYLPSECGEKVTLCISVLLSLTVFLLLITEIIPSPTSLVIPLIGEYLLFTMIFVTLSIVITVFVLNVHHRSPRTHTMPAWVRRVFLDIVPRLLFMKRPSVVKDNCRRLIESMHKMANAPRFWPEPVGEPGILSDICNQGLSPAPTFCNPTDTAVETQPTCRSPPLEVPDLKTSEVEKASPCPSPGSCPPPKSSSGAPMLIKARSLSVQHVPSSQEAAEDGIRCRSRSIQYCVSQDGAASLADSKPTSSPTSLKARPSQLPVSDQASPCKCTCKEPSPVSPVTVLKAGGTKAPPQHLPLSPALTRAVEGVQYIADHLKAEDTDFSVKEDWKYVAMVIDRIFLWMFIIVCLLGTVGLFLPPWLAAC

Work on `Clc1ccc(OC[C@@H]2CCN2)cn1` yielded a Ki of 0.03 nM.
